In assay [1] the test system is kidney membrane fraction. Put plainly: Effect of sugars on inhibition of specific binding between ^3H-Glc-S-C8 and kidney membrane fraction (Test 8). The settings on record: ^3H-Glc-S-C8 20 pmol/ml, kidney membrane fraction 1 mg protein/ml.
Procedure: In order to estimate structural requirement for recognition in the kidney, an experiment was carried out on the effect of various sugars and sugar derivatives on the inhibition of specific -binding between ^3H-Glc-S-C8 (20 pmol/ml) and the kidney membrane fraction (1 mg protein/ml).
Assay [2] deals with kidney membrane fraction. Put plainly: Effect of glycolipid derivatives on inhibition of specific binding between ^3H-Glc-S-C8 and kidney membrane fraction (Test 9). The settings on record: specific binding of ^3H-Glc-S-C8 to kidney membrane fraction, same manner as Test 4. The procedure: A membrane fraction was prepared by the method of Stassen F.L. et al. (J. Pharm. Exp. Thera., 223, 50-54, 1982). An experiment on binding was carried out as follows. The membrane fraction prepared above, together with the ^3H-labeled derivative, was incubated in physiological phosphate buffer on ice, followed by ultracentrifugation. The bound product obtained as the sediment by the ultracentrifugation was counted. […]
Commercially available or synthesized glycolipid derivatives were subjected to an binding inhibition experiment in the same manner as in Test 4.

Where a name gives a salt, the structure may show the parent alone.

The results in this text go back to patent publication EP0953357A1, “NEPHROTROPIC DRUGS” (Drug Delivery System Institute, Ltd., priority 1997, dated 1998).

`OC[C@H]1NC[C@H](O)[C@@H](O)[C@@H]1O` [1-Deoxynojirimycin]: the entries for the “Inhibition (%)” value in assay [1] (sample 20 mM) and in assay [1] (sample 100 mM) were 98.9% and 99.6%, respectively.
For the compound `O=CC[C@@H](O)[C@H](O)[C@H](O)CO` [2-Deoxyglucose], the “Inhibition (%)” value in assay [1] (sample 20 mM) worked out at 29.2%; in assay [1] (sample 100 mM), 58.3%.
With `O=C[C@H](F)[C@@H](O)[C@H](O)[C@H](O)CO` [2-Fluoro-2-deoxyglucose], the “Inhibition (%)” value is 37.8% in assay [1] (sample 20 mM) and 67.9% in assay [1] (sample 100 mM).
For `O=C[C@H](O)[C@@H](F)[C@H](O)[C@H](O)CO` [3-Fluoro-3-deoxyglucose] the same measures were 9.7% and 18.7%.
Taken in the same sequence, the figures for `O=C[C@H](O)[C@@H](O)[C@H](F)[C@H](O)CO` [4-Fluoro-4-deoxyglucose] were 70.2% and 83.9%.
On to `COC(=O)CCCCCCCCS[C@@H]1N[C@H](CO)[C@@H](O)[C@H](O)[C@H]1O` [5N-Glc-S-C8-COOMe, 8-methoxycarbonyloctyl 5-amino-5-deoxy-1-thio-β-D-glucopyranoside hydrochloride], for which the IC50 in assay [2] came to 4.7 µM.
Still for that read-out and setting: as for `COC(=O)CCCCCCCCS[C@@H]1S[C@H](CO)[C@@H](O)[C@H](O)[C@H]1O` [5S-Glc-S-C8-COOMe, 8-methoxycarbonyloctyl 5-deoxy-1,5-dithio-β-D-glucopyranoside], the figure is 14 µM.
Regarding `O=C[C@H](O)[C@@H](O)[C@H](O)[C@H](O)CF` [6-Fluoro-6-deoxyglucose], the “Inhibition (%)” value worked out at 17.8% in assay [1] (sample 20 mM) and 32.5% in assay [1] (sample 100 mM).
Turning to `CCCCCCCCS[C@@H]1O[C@H](CO)[C@@H](O)[C@@H](O)[C@H]1O` [All-S-C8, Octyl 1-thio-β-D-allopyranoside], the IC50 in assay [2] amounted to 1.1 µM.
On the same count and under the same terms, with `CCCCCCCCS[C@H]1C[C@@H](O)[C@H](O)[C@@H](CO)O1` [Example 2d-Glc-S-C8, Octyl 2-deoxy-1-thio-β-D-glucopyranoside] the figure was 0.071 µM.
As to `CCCCCCCCS[C@@H]1O[C@H](CO)C[C@H](O)[C@H]1O` [Example 4d-Glc-S-C8, n-octyl 4-deoxy-1-thio-β-D-glucopyranoside], the IC50 in assay [2] was found to be 55 µM.
Take `O=C[C@H](O)[C@@H](O)[C@@H](O)[C@H](O)CO` [Galactose]: the “Inhibition (%)” value came to 2.5% in assay [1] (sample 20 mM) and 18.9% in assay [1] (sample 100 mM).
`COC(=O)CCCCCCCN[C@@H]1O[C@H](CO)[C@@H](O)[C@H](O)[C@H]1O` [Glc-NH-C7-COOMe, N-(7-methoxycarbonyl)heptyl-β-D-glucopyranosylamine]: the IC50 in assay [2] was determined as 0.11 µM.
As to `COC(=O)CCCCCCCCO[C@@H]1O[C@H](CO)[C@@H](O)[C@H](O)[C@H]1O` [Glc-O-C8-COOMe, 8-methoxycarbonyloctylβ-D-glucopyranoside], the IC50 in assay [2] came to 33 µM.
Same read-out and setting: as for `COC(=O)CCCCCCCCS[C@@H]1O[C@H](CO)[C@@H](O)[C@H](O)[C@H]1O` [Glc-S-C8-COOMe, 8-methoxycarbonyloctyll-thio-β-D-glucopyranoside], the figure is 0.59 µM; as for `CC(C)(C)CC(C)(C)S[C@@H]1O[C@H](CO)[C@@H](O)[C@H](O)[C@H]1O` [Glc-S-C(CH3)2-CH2-C(CH3)3, t-Octyl 1-thio-β-D-glucopyranoside], 1 µM; as for `CCCCC(CCCC)S[C@@H]1O[C@H](CO)[C@@H](O)[C@H](O)[C@H]1O` [Glc-S-CH(C4H9)2, 5-(1-Thio-β-D-glucopyranosyl)nonan], 1.5 µM.
Still for that read-out and setting: as for `O=[N+]([O-])c1ccc(S[C@@H]2O[C@H](CO)[C@@H](O)[C@H](O)[C@H]2O)cc1` [Glc-S-pNP, p-Nitrophenyl 1-thio-β-D-glucopyranoside], the figure is 0.23 µM; as for `CCCCCCCCS[C@@H]1O[C@H](CO)[C@@H](O)[C@H](O)[C@@H]1O` [Man-S-C8, Octyl 1-thio-β-D-mannopyranoside], 0.2 µM.
The same measure, in the same setting: with `CCCCCCCCS[C@@H]1OC[C@@H](O)[C@H](O)[C@H]1O` [Xyl-S-C8, Octyl 1-thio-β-D-xylopyranoside] the figure was 1.5 µM.
